These results are taken from PubChem BioAssay (NCI).

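1) Cells in 96-well plates. 2) Compound, 48 h, 5 concentrations. 3) Linear interpolation between surrounding doses. 4) Unreached endpoint = highest concentration. TGI: total growth inhibition.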 Bounds are passed on as bounds.

What all share (test): NCI-60 cell line screen, 48 h
The test system of assay [1] is 786-0 renal.
The subject of assay [2] is ACHN renal.
Assay [3] deals with DU-145 prostate.
Assay [4] has as its system HOP-92 NSCLC.
Assay [5] has as its system IGROV1 ovarian.
For assay [6], the system named is MALME-3M melanoma.
Assay [7] concerns MOLT-4 leukemia.
In assay [8] the test system is SF-295 CNS.
For assay [9], the system named is TK-10 renal.
The subject of assay [10] is U251 CNS.

For `COC(=O)c1ccc2c(c1)CC1(C2)Cc2cc3c(c(C(=O)OC)c2C1)CCCC3` (stereo not given), the TGI in assay [1], in assay [2], in [3], in assay [4], in assay [5] and in assay [6] was over 100 µM in each case. Besides, the TGI in assay [7], in assay [8], in assay [9] and in assay [10] was over 100 µM in each case.
Take `Cc1ccc(-c2sc(-c3ccc(C)cc3)c3c2C2CCC3C2)cc1`: the TGI in assay [1], in assay [2], in [3], in assay [4], in assay [5] and in assay [6] was over 50 µM throughout. The TGI in [7], in assay [8], in assay [9] and in [10] was over 50 µM in each case.
For `Nc1nc(Cl)c(C=O)c(NCC2(CO)CC(CCc3ccccc3)C2)n1` (stereo not given), the TGI stood at 69.5 µM in [1]; 25.8 µM in [2]; 30.8 µM in assay [3]; 4.46 µM in assay [4]; 3.48 µM in [5]; 30.2 µM in assay [6]. The TGI in assay [7] stood at 9.01 µM; in assay [8], 27 µM; in [9], 62.4 µM; in assay [10], 26.6 µM.
For the compound `O=C(O)CCC(NC(=O)c1ccc(Nc2nc3ccccc3nc2C(=O)O)cc1)C(=O)O` (stereo not given), the TGI in assay [1], in assay [2], in assay [3], in assay [4], in assay [5] and in [6] was over 100 µM each time. Also, the TGI in [7], in assay [8], in assay [9] and in [10] was over 100 µM in each case.
